According to ChEMBL document CHEMBL1201862, “PubChem BioAssay data set” (2004):
The source made the active and inactive calls.

Experiments:
[1] = Luminescence-based dose response cell-based high throughput screening assay for cytotoxic compounds using the IEC-6 intestinal epithelial cell line. [Related pubchem assays: 1858 (Summary AID.), 1825 (Counterscreen.), 1907 (Confirmation screen.)]; assay type: functional
[2] = Luminescence Cell-Based Dose Retest to Confirm Inhibitors of Cancer Stem Cells. [Related pubchem assays (depositor defined):AID2717, AID2721]; assay type: functional; conditions: Homo sapiens
[3] = cytotoxicity in HEK-293T cells, dose response, cytotoxicity control for TCR NF-kB inhibitor project, luminescence, T-cell screen hits (AID 489026); assay type: functional, cell-based;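 further: cells exposed to compound about 14 hours before the viability readout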
[4] = target: Sphingosine 1-phosphate receptor 2 (Homo sapiens, UniProt O95136); experiment: Dose Response Cell Based Assay for Agonists of the S1P2 Receptor of Purchased Analogues. [Related pubchem assays: 729, 843, 854, 736 ]; assay type: functional
Sphingosine 1-phosphate receptor 2, sequence (O95136 whole entry): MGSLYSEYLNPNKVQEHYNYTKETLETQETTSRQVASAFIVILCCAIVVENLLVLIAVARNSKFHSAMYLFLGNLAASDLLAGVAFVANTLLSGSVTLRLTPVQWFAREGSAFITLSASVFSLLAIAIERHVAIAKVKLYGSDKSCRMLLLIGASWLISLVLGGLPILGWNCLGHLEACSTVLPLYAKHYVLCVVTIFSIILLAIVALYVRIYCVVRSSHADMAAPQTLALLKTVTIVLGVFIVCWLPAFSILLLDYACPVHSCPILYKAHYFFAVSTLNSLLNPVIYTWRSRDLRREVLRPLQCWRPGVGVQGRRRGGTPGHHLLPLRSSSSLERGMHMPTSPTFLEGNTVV

[5] = A High Throughput Confirmatory Assay used to Identify Novel Compounds that Inhibit Mycobacterium Tuberculosis in the absence of Glycerol.; assay type: functional
[6] = target: Peroxisome proliferator-activated receptor gamma/Nuclear receptor coactivator 1 (Homo sapiens, UniProt P37231); experiment: (§1) TR-FRET dose response biochemical High Throughput Screening assay for agonists of the steroid receptor coactivator 1 (SRC-1) recruitment by the peroxisome proliferator-activated receptor gamma (PPAR gamma): non-selective agonists. [Related pubchem assays (depositor defined):AID1300, AID1808, AID504735, AID631]; assay type: protein assay
[7] = target: Peroxisome proliferator-activated receptor gamma/Nuclear receptor coactivator 3 (Homo sapiens, UniProt P37231); experiment: as §1, with “3 (SRC-3)” for “1 (SRC-1)”, “assays: 1301 (Confirmation screen.), 1048 (Primary screen.)]” for “assays (depositor defined):AID1300, AID1808, AID504735, AID631]”; assay type: functional
[8] = cytotoxicity in HPDE-C7 cells, cell-based, fluorescence, HTS (AID 430); assay type: functional; conditions: Homo sapiens
[9] = M. tuberculosis growth inhibition, HTS (AID 449762); assay type: functional
[10] = microbe, parasite or virus in culture; assay type: functional; conditions: Mycobacterium tuberculosis
[11] = cytotoxicity in KRAS-transformed pancreatic duct cells, primary screen, cell-based, fluorescence, HTS (AID 431); assay type: functional; conditions: Homo sapiens;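 further: cell line used: HPDE-C7K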
[12] = target: Peroxisome proliferator-activated receptor gamma/Nuclear receptor coactivator 2 (Homo sapiens, UniProt P37231); experiment: TR-FRET dose response biochemical High Throughput Screening assay for agonists of the steroid receptor coactivator 2 (SRC-2) recruitment by the peroxisome proliferator-activated receptor gamma (PPAR gamma): non-selective agonists. [Related pubchem assays: 1297, 1032 ]; assay type: functional
[13] = target: T1, Replicative DNA helicase DnaB (Mycobacterium tuberculosis, UniProt P9WMR3); experiment: DnaB intein splicing inhibitors, dose response, biochemical, cell-free fluorescence (AID 449749); assay type: functional
T1 sequence (P9WMR3 whole entry): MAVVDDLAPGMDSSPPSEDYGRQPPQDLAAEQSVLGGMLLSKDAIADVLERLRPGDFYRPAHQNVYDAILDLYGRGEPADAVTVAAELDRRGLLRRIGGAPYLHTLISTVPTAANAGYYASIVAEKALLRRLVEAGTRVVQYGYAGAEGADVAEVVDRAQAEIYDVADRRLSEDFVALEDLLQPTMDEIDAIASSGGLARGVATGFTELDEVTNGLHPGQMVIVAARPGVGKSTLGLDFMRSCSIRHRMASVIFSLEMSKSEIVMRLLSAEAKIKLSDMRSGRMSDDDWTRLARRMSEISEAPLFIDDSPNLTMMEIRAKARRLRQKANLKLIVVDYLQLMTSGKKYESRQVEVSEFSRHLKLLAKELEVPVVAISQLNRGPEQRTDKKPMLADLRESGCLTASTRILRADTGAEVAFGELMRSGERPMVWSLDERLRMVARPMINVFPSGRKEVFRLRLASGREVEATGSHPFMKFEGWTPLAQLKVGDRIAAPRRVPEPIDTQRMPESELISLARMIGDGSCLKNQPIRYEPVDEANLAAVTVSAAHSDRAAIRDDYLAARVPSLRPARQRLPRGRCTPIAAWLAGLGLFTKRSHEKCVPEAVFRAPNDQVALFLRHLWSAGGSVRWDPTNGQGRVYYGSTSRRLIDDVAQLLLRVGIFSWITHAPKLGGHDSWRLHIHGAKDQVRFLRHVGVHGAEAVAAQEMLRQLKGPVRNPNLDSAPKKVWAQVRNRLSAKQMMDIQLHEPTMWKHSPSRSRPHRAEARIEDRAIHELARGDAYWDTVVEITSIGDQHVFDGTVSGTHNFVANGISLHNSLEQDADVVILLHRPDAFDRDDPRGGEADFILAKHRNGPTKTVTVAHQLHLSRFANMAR

Protein RecA = target: T2, Protein RecA (Mycobacterium tuberculosis, UniProt P9WHJ3); experiment: Fluorescence Cell-Free Homogeneous Dose Retest to Identify Inhibitors of RecA-Intein Splicing Activity. [Related pubchem assays (depositor defined):AID2097, AID2223, AID489010, AID492950]; assay type: functional
T2 sequence (P9WHJ3 whole entry): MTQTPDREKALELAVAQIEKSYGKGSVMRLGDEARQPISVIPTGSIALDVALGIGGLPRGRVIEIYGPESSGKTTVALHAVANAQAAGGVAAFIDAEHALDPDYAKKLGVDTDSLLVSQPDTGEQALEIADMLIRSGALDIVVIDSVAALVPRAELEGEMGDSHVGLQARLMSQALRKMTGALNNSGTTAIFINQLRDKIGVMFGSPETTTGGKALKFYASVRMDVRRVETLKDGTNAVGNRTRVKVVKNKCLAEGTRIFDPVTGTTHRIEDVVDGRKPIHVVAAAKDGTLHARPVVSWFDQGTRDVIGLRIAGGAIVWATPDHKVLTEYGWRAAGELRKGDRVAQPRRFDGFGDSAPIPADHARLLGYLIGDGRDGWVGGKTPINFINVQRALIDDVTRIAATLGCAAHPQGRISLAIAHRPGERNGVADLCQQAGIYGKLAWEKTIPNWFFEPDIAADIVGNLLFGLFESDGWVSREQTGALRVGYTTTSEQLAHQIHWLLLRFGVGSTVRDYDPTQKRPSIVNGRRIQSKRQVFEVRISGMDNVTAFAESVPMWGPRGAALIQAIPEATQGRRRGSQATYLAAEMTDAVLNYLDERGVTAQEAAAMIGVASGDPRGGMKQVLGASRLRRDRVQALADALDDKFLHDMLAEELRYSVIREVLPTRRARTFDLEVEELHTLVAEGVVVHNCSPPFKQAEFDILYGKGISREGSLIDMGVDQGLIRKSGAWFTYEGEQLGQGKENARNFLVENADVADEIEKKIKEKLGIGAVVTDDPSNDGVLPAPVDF

Fatty acid synthase [14] = target: T3, Fatty acid synthase (Homo sapiens, UniProt P49327); experiment: FAS thioesterase domain inhibitors, dose response, biochemical, endpoint fluorescence intensity, uHTS hits (AID 624327); assay type: functional;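 further: fluorescence from hydrolysis of an O-methyl fluorescein acyl ester substrate by the enzyme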
T3 sequence (P49327 whole entry, the tested form may be a part): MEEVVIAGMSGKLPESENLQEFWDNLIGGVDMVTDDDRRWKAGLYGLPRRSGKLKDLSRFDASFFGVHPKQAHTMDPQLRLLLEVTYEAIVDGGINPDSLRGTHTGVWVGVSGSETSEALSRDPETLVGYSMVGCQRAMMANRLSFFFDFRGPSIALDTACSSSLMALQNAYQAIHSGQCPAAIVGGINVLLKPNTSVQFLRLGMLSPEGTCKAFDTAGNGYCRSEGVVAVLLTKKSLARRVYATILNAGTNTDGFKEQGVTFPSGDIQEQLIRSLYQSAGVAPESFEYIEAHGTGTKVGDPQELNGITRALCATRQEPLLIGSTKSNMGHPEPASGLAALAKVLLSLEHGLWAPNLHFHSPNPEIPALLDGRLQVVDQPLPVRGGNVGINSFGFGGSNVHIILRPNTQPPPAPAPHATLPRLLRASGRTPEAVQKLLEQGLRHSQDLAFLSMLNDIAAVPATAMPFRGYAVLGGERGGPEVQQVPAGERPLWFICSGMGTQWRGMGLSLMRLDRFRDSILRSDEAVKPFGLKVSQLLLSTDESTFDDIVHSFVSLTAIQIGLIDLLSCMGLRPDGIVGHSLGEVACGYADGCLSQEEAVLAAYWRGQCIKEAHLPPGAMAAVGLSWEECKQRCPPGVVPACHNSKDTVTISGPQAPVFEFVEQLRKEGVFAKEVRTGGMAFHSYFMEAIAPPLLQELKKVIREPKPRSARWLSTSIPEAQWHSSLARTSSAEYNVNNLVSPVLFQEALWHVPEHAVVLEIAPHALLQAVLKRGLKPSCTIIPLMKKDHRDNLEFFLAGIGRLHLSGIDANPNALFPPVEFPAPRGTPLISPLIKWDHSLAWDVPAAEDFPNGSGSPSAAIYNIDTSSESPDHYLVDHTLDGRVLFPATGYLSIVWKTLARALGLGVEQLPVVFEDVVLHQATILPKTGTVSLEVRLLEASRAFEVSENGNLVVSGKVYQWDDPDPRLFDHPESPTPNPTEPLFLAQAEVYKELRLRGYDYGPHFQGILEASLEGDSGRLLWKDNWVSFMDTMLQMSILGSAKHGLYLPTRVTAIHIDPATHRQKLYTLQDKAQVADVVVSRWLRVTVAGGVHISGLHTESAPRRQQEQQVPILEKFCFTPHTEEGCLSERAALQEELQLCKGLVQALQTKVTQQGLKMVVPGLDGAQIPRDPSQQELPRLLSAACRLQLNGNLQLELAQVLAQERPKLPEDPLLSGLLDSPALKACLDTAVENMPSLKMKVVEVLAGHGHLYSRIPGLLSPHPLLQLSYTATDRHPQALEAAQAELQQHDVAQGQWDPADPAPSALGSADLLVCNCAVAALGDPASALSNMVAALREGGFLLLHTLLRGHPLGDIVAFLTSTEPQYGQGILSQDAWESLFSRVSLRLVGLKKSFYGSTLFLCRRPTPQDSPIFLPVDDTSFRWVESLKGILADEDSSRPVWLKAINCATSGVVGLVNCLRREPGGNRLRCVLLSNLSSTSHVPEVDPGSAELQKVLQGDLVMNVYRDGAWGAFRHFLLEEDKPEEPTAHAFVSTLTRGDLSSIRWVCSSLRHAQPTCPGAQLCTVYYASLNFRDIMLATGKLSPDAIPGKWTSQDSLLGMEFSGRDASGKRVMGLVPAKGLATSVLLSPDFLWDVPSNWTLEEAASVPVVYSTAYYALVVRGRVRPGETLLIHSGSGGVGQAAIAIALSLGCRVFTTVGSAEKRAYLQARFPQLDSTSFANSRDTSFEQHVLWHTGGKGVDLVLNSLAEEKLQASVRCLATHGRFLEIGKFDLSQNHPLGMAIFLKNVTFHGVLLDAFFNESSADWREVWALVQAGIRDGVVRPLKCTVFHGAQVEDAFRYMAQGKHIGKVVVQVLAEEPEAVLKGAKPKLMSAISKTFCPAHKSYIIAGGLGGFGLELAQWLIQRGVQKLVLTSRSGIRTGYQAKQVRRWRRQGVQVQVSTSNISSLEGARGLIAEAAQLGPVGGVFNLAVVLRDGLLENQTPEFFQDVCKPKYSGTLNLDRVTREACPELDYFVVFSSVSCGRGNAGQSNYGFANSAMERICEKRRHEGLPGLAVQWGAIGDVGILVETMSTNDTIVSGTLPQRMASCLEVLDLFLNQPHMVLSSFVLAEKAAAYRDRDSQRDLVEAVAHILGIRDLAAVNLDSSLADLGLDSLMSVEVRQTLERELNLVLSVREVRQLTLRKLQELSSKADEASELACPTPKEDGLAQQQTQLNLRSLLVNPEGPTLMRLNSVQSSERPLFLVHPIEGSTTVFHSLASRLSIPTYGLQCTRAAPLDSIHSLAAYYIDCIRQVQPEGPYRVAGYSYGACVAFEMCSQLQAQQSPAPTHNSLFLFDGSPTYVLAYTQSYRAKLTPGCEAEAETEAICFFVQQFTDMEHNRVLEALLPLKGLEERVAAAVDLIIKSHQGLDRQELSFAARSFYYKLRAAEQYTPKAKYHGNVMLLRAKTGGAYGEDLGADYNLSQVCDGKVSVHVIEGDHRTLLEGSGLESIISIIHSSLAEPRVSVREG

Fatty acid synthase [15] = target: T3, Fatty acid synthase; experiment: FAS thioesterase domain inhibitors, dose response, biochemical, kinetic fluorescence intensity (AID 624326); assay type: functional;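 further: rate of fluorescence rise from hydrolysis of a fluorogenic O-methyl fluorescein ester substrate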
Cytochrome P450 2C19 = Cytochrome P450 2C19 (Homo sapiens, UniProt P33261); experiment: qHTS Assay for Inhibitors and Substrates of Cytochrome P450 2C19. [Related pubchem assays: 410 ]; assay type: ADME; conditions: read-out: Potency
Cytochrome P450 2C19, sequence (P33261 whole entry): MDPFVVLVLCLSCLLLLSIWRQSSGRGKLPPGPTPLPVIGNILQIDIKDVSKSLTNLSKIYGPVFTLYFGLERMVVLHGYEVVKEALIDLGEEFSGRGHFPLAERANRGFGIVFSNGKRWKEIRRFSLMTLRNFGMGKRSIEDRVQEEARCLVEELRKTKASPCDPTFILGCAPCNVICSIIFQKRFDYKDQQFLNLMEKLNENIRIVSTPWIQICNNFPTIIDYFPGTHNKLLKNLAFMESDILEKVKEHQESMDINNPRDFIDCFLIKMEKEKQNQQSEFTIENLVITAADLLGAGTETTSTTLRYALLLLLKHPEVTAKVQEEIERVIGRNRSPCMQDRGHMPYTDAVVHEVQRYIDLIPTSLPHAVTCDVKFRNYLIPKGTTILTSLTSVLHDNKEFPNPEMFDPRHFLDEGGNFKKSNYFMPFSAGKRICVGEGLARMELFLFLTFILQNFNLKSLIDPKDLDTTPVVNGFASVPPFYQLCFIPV

Cytochrome P450 2C9 = Cytochrome P450 2C9 (Homo sapiens, UniProt P11712); conditions: Potency
Cytochrome P450 2C9, sequence (P11712 whole entry): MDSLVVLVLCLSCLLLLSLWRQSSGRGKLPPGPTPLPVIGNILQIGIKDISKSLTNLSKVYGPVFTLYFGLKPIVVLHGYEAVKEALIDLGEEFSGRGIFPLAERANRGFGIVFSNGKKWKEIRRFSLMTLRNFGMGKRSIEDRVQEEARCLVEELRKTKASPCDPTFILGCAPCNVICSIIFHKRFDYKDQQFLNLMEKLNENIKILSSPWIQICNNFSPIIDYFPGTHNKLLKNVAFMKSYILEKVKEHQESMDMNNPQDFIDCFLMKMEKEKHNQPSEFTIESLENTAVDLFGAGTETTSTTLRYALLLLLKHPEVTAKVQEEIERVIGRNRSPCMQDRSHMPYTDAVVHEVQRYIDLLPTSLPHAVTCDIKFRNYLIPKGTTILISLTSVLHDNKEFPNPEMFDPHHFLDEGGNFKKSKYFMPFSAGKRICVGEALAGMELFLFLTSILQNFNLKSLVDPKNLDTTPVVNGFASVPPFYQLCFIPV

[16] = target: Peroxisome proliferator-activated receptor gamma/Nuclear receptor corepressor 2 (Homo sapiens, UniProt P37231+Q9Y618); experiment: Counterscreen for NR2E3 inverse agonists: TR-FRET-based biochemical high throughput dose response assay to identify inverse agonists of the interaction between peroxisome proliferator-activated receptor gamma (PPARg) and nuclear receptor co-repressor 2 (NCOR2).; assay type: functional
[17] = target: Photoreceptor-specific nuclear receptor (Homo sapiens, UniProt Q9Y5X4); experiment: NR2E3 inverse agonists, dose response, biochemical, TR-FRET (AID 463256); assay type: functional
Photoreceptor-specific nuclear receptor, sequence (Q9Y5X4 whole entry): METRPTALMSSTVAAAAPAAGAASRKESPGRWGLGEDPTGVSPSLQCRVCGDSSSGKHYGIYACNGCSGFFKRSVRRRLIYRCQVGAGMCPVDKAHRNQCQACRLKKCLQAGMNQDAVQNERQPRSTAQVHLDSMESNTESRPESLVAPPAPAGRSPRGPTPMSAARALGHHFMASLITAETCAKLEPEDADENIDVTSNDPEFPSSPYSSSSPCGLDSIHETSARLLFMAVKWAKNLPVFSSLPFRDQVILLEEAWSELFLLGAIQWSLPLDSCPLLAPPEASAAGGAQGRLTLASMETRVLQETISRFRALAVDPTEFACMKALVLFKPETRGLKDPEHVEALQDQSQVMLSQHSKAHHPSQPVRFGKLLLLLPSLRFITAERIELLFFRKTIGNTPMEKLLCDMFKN

COC(=O)C(Cc1ccc(N(CCCl)CCCl)cc1)/N=C/c1ccccc1O (stereo not given)
IC50 [1]: 0.103 µM (active) | AC50 [2]: 0.899 µM (active) | IC50 [3]: > 80 µM (inactive)

Cc1cc(C(=O)CN(C)CC(=O)NC2CC2)c(C)n1Cc1ccccc1
EC50 [4]: > 30 µM (not active)

COc1cc2cc(C(c3nnnn3C(C)(C)C)N3CCc4ccccc43)c(O)nc2cc1OC (stereo not given)
IC50 [5]: > 100 µM (active)

O=C(Sc1nnc(-c2ccccc2)o1)N1c2ccccc2Sc2ccccc21
EC50 [6]: 34.9 µM (inactive) | EC50 [7]: > 79.4 µM (not active) | EC50 [8]: 5.48 µM (active) | IC50 [9]: > 100 µM (active) | CC50 [10]: > 40 µM (active) | EC50 [11]: 6.64 µM (active) | EC50 [12]: 20.8 µM (not active) | AC50 [13]: 1.25 µM (active) | EC50 (Protein RecA): 0.804 µM (active) | IC50 (Fatty acid synthase [14]): 10.4 µM (active) | IC50 (Fatty acid synthase [15]): 16.3 µM (active)

COc1cc2ccc(=O)oc2c(O)c1O [FRAXETIN]
AC50 (Cytochrome P450 2C19): 39.8 µM (inconclusive) | AC50 (Cytochrome P450 2C9): 25.1 µM (inconclusive)

CC(C)(C)NC(=O)CN(Cc1ccco1)C(=O)CCC(=O)Nc1nccs1
IC50 [16]: 32.7 µM (not active) | IC50 [17]: > 39.8 µM (not active)
